Reference: patent publication US20060165670A1, “Synbiotic combination” (priority 2003, published 2006)

How the values were obtained:
yeasts = test: Continuous culture chemostat with faecal inocula and antimicrobials; assay type: cell-based; details: 1 gl^−1 in medium, compared to control chemostats
Experimental: (§1) (i) Continuous culture system: Three chemostats are set up in a parallel; each is maintained under nitrogen gas, at 37° C., pH 6.5 and a dilution rate of 0.066 h^−1. These conditions are set to resemble conditions typically found in the distal region of the human colon. The chemostats are fed with a control growth medium which comprised (gl^−1 in distilled water): yeast extract 2, peptone water 2, NaCl 0.1, K2HPO4 0.04, KH2PO4 0.04, MgSO4.7H2O 0.01, CaCl2.H2O 0.01, NaHCO3 2, Tween 80 2, hemin 0.05, Vitamin K1 0.01, cysteine.HCl 0.5, bile salts 0.5, glucose 0.4, starch 3, pectin 2 and arabinogalactan 1. The medium is autoclaved at 121° C. for 30 min and, whilst still hot, placed under nitrogen gas. After the medium has cooled, 1 gl^−1 of filter sterilised tetracycline or 1 gl^−1 of filter sterilised nystatin is aseptically added to the medium reservoir. Control chemostats with no antimicrobials added are also run. […]
(§2) (iii) Microbial culture techniques: A sample is taken from each fecal slurry used as inocula and 1 ml samples are also removed from each chemostat when the fermentation system has reached steady state (after 164 h). […] After 24-48 h of Incubation aerobic colonies are counted and after 48-72 h of incubation anaerobic plates are enumerated. […]

Lactobacilli = test: as above; assay type: cell-based; details: 1 gl^−1 in medium
Experimental: as §1, §2

Q: Which results are given for `C[C@@H]1[C@H](O)[C@@H](C)/C=C/C=C/CC/C=C/C=C/C=C/C=C/C(O[C@H]2O[C@H](C)[C@@H](O)[C@H](N)[C@@H]2O)CC2O[C@](O)(CC(O)C(O)CCC(O)CC(O)CC(O)CC(=O)O[C@H]1C)CC(O)C2C(=O)O` (some centres unmarked) [nystatin]?
A: effect on yeasts (yeasts): yeasts are inhibited; effect on lactobacilli (Lactobacilli): reduction in lactobacilli
